Measurements taken from paper PMC4876372 (Scientific Reports, 2016).

Experiments:
[1] = test system: 8-oxo-dG levels in DNA of HeLa cells; assay: 8-oxo-dG immunofluorescence; format: cell-based, human; conditions: 20 h, NPD compounds 100 μM, TH287 3 and 10 μM
Description: Human cancer cell lines HeLa (cervical cancer), MIA PaCa-2 (pancreatic cancer), A431 (epidermoid carcinoma), and human embryonic kidney derived cell line HEK293T were cultured in Dulbecco’s Modified Eagle’s Medium (DMEM; Invitrogen) containing 10% fetal bovine serum (FBS), penicillin G (50 units/mL) and streptomycin (50 µg/mL). Human cancer cell lines Panc-1 (pancreatic cancer) and Jurkat (T cell lymphoma) were cultured in RPMI (Gibco) containing 10% FBS, penicillin G (50 units/mL) and streptomycin (50 µg/mL). Human osteosarcoma cell line MG-63, mouse embryonic fibroblast NIH3T3 cells and its transformant NIH3T3/KRAS cells1 were cultured in DMEM (Sigma-Aldrich) containing 10% calf serum, glutamine (0.3 g/L), penicillin G (50 units/mL), and streptomycin (50 µg/mL). All cell lines were incubated at 37 °C in a humidified atmosphere containing 5% CO2. […]
The HeLa cells were seeded on glass coverslips in 12-well plates, cultured overnight, and treated with test compounds for the indicated time. For 8-oxo-dG, cells were fixed sequentially in 3.7% formalin for 10 min and methanol at -20 °C for 10 min, and then permeabilized in 0.5% Triton X-100 in PBS at room temperature for 5 min. After blocking with 0.5% BSA in PBS at room temperature for 30 min, cells were incubated sequentially with a primary antibody against 8-oxo-dG (5 µg/mL, MOG-020; Japan Institute for the Control of Aging) and with Alexa Fluor 488-conjugated secondary antibody (1:400, Life Technologies) under the same conditions. After a quick rinse in PBS, DNA was counterstained with 0.1 µg/mL 4′,6-diamidino-2-phenylindole (DAPI) in PBS at room temperature for 10 min. Images were analyzed with a fluorescence microscope (BX60, Olympus).

[2] = target: T1, His-tagged human recombinant ITPA protein (Homo sapiens, UniProt Q9BY32); assay: ITPA enzyme assay; format: biochemical; conditions: at 100 μM
T1 construct: His; purchased ProSpec
Description: Likewise, the enzymatic activities of ITPA and DCTPP1 were measured using a PPiLight Inorganic Pyrophosphate Assay kit. For the ITPA enzyme assay, we used ITPA assay buffer (100 mM Tris-acetate, 50 mM Mg(OAc)2, 0.005% Tween-20, and 2 mM DTT, pH 7.5), His-tagged human recombinant ITPA protein (5 nM; ProSpec), and ITP (25 μM). For the DCTPP1 enzyme assay, we used DCTPP1 assay buffer (100 mM Tris-acetate, 100 mM NaCl, 10 mM Mg(OAc)2, 0.005% Tween-20, and 2 mM DTT, pH 7.5), His-tagged human recombinant DCTPP1 protein (50 nM; ATGen), and deoxycytidine triphosphate (dCTP; 50 μM).
To exclude false positive compounds that inhibit PPi detection, the effects of test compounds on 10 μM Na4P2O7-induced luciferase activity were examined.

[3] = target: T2, MTH1 in intact HeLa cells (Homo sapiens, UniProt P36639); assay: Target engagement assay (CETSA); format: cell-based; conditions: 300 μM, 1 h
T2 construct: endogenous in cells; host or cells: HeLa
Description: To analyze the interaction between small-molecule ligands and their target proteins in intact cells, a cellular thermal shift assay (CETSA) was performed as described previously with minor modifications. […] After treatment, cells were collected with trypsin and resuspended in Tris-buffered saline (TBS). The cell suspension was aliquoted into four polymerase chain reaction (PCR) tubes and heated at 45, 50, 55, or 60 °C for 5 min. Subsequently, cells were lysed by three repeated freeze-thaw cycles using liquid nitrogen. Precipitated proteins were separated from the soluble fraction by centrifugation at 17,000 × g for 20 min. Soluble proteins collected in the supernatant were subjected to sodium dodecyl sulfate polyacrylamide gel electrophoresis (SDS-PAGE) and transferred to a polyvinylidene difluoride (PVDF) membrane (Millipore) for western blot analysis. […] Santa Cruz Biotechnology) and a horseradish peroxidase–labeled secondary antibody (Vector Laboratories) in sequence. They were then visualized with Fusion Solo S (Vilber Lourmat) using a Super Signal West Pico Chemiluminescence Substrate (Pierce). After detection of MTH1 by western blot, proteins on the membrane were visualized by staining with Coomassie brilliant blue (CBB).

porcine tubulin = target: T3, porcine tubulin (Sus scrofa, UniProt P02550+P02554); assay: In vitro tubulin polymerization assay; format: biochemical; conditions: even at 300 μM
T3 construct: purchased Cytoskeleton
T3 sequence (P02550 whole entry): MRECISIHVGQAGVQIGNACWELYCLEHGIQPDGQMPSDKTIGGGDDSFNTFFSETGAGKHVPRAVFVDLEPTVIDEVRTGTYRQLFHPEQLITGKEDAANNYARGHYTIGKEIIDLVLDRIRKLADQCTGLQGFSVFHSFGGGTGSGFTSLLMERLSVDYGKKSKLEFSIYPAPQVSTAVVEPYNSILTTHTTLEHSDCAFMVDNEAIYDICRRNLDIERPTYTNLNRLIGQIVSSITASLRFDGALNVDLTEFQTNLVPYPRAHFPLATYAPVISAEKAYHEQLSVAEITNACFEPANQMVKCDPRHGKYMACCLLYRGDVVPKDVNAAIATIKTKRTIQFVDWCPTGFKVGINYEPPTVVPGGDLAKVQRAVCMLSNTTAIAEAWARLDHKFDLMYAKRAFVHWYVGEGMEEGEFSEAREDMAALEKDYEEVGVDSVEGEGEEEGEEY
T3 sequence (P02554 whole entry): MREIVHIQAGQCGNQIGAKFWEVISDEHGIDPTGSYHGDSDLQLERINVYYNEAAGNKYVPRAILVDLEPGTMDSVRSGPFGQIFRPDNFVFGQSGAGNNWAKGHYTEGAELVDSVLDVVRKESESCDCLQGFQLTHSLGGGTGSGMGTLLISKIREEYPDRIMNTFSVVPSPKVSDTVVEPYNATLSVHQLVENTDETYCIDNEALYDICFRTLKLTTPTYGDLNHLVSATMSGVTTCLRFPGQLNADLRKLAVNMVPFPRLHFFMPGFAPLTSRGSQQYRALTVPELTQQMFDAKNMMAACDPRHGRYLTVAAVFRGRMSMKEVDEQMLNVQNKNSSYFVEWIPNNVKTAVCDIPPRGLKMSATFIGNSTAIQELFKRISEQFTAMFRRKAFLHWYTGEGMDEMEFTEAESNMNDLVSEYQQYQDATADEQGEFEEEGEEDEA
Description: In vitro tubulin polymerization assay was performed using a tubulin polymerization assay kit (Cytoskeleton) according to the manufacturer’s instructions. Briefly, lyophilized porcine tubulin was solubilized to a final concentration of 2 mg/mL in reaction buffer containing 80 mM piperazine-N,N′-bis(2-ethanesulfonic acid) (PIPES; pH 6.9), 2 mM MgCl2, 0.5 mM ethylene glycol tetraacetic acid (EGTA), 1 mM guanosine-5′-triphosphate (GTP), 10 μM fluorescent reporter, and 20% glycerol, and kept at 4 °C. Compounds (100 × DMSO stock solutions) were added to prewarmed half-area 96-well black plates. Cold tubulin solution was added to the wells. The plate contents were mixed by shaking, and fluorescence (Ex 350 nm, Em 435 nm) was read every minute for 1 h using a fluorescence microplate reader (Molecular Devices).

[4] = test system: nuclear 53BP1 foci in HeLa cells; assay: 53BP1 foci immunofluorescence (DNA damage); format: cell-based, human; conditions: 24 h, only at the higher concentrations (100-300 μM)
Description: For 53BP1, test compound–treated HeLa cells were fixed in 3% formalin in PBS containing 0.1% Triton X-100 for 15 min and permeabilized in 0.5% Triton X-100 for 5 min. After blocking with 10% FBS and 0.1% Triton X-100 in PBS for 1 h, cells were incubated sequentially with a primary antibody against 53BP1 (1:600, sc-22760; Santa Cruz Biotechnology) in blocking solution at 37 °C for 1 h and with Alexa Fluor 568-conjugated secondary antibody (1:400, Life Technologies) under the same condition.
After a quick rinse in PBS, DNA was counterstained with 0.5 µg/mL Hoechst 33342 (Sigma-Aldrich) in PBS at room temperature for 10 min. Images were analyzed on a fluorescence microscope (Delta Vision). […]

HeLa cells = assay: Cell cycle analysis (propidium iodide flow cytometry); format: cell-based, human; conditions: 24 h, HeLa cells (Ctrl 0.9%)
Description: The HeLa cells were seeded in 12-well plates and treated with test compounds for the indicated time. Cells were harvested, washed with PBS, and incubated in propidium iodide (PI) solution containing 50 µg/mL propidium iodide, 0.1% sodium citrate, 0.2% Nonidet P-40, and 0.25 µg/mL RNase A (Nacalai Tesque) for 30 mi n in the dark.
Cellular DNA content was analyzed by fluorescence-activated cell sorting using a Cytomics FC500 (Beckman Coulter). […]

| Structure (SMILES) | accumulation of 8-oxo-dG [1] | effect on enzymatic activity of ITPA [2] | thermal stabilization of cellular MTH1 [3] | effect on tubulin polymerization in vitro (porcine tubulin) | DNA damage (nuclear 53BP1 foci formation) [4] | sub-G1 cell population (HeLa cells; 100 μM) [%] | sub-G1 cell population (HeLa cells; 200 μM) [%] |
| --- | --- | --- | --- | --- | --- | --- | --- |
| CC1(C)CC2CC(C)(CN2c2ncnc3[nH]cnc23)C1 (centres unmarked) [NPD7155] | did not induce the significant accumulation | did not affect | considerably stabilized | did not affect tubulin polymerization | increased nuclear 53BP1 foci formation | 4.9 | 9.0 |
| Nc1nc(NCCc2ccccc2)c2nc[nH]c2n1 [NPD9948] | did not induce the significant accumulation | did not affect | considerably stabilized | did not affect tubulin polymerization | increased nuclear 53BP1 foci formation | 8.2 | 19 |
